SMILES strings stand for the structures. Converted amounts (≈) assume the structure as drawn. Where only a bound is given, the exact number is not on record here.

Among the test systems are Leuconostoc lactis; Escherichia coli BL21AI; Staphylococcus xylosus; Pseudomonas aeruginosa; Klebsiella pneumoniae; Escherichia coli; Staphylococcus aureus; Salmonella typhimurium; Micrococcus luteus; Bacillus subtilis; Proteus mirabilis; Shigella dysenteriae; Candida albicans; Saccharomyces cerevisiae; Serratia marcescens; Escherichia coli ML-35; Bacillus megaterium Bm11; Bacillus subtilis 168.

What all share (test): ≥ marks a high value that may be exact or a test limit, other limits are often not marked, values filed in µg/mL are converted to µM
Test [1] relates to Micrococcus luteus ATCC 10240.
Test [2] relates to Staphylococcus aureus ATCC 25923.
The subject of test [3] is Escherichia coli ATCC 25726.
Test [4] has as its system Escherichia coli NCTC 10418.
In test [5] the test system is Staphylococcus aureus ATCC 12493.
The subject of test [6] is Enterococcus faecalis NCTC 12697.
Test [7] deals with Escherichia coli DH5alpha.
Test [8] deals with Staphylococcus epidermidis.
The subject of test [9] is Salmonella enterica subsp. enterica serovar Typhimurium ATCC 14028.

For the molecule `CC[C@H](C)[C@H](NC(=O)[C@H](CO)NC(=O)[C@H](CO)NC(=O)[C@@H](NC(=O)[C@H](CC(C)C)NC(=O)CN)C(C)C)C(=O)NCC(=O)N[C@@H](CCCCN)C(=O)N[C@@H](C)C(=O)N[C@@H](CC(C)C)C(=O)NCC(=O)NCC(=O)N[C@@H](CC(C)C)C(=O)N[C@@H](CC(C)C)C(=O)N[C@H](C(=O)N[C@@H](CC(=O)O)C(=O)N[C@H](C(=O)N[C@H](C(=O)N[C@@H](CCCCN)C(=O)N[C@@H](CO)C(=O)N[C@@H](CCCCN)C(=O)NCC(=O)N[C@@H](CCC(N)=O)C(=O)N1CCC[C@H]1C(=O)N[C@@H](C)C(=O)O)C(C)C)C(C)C)C(C)C` [GLVSSIGKALGGLLVDVVKSKGQPA], the MIC against Leuconostoc lactis was 20.9 µM (≈ 50 µg/mL).

Regarding `CC[C@H](C)[C@H](NC(=O)[C@@H]1CCCN1C(=O)[C@H](CCCN=C(N)N)NC(=O)[C@@H]1CCCN1C(=O)[C@H](Cc1cnc[nH]1)NC(=O)[C@H](CO)NC(=O)[C@@H](NC(=O)[C@@H]1CCCN1C(=O)[C@H](CCCN=C(N)N)NC(=O)[C@@H]1CCCN1C(=O)[C@H](CO)NC(=O)[C@H](Cc1ccc(O)cc1)NC(=O)[C@@H]1CCCN1C(=O)[C@H](CCCN=C(N)N)NC(=O)[C@@H]1CCCN1C(=O)[C@H](CCCCN)NC(=O)CN)[C@@H](C)O)C(=O)N[C@@H](CCCN=C(N)N)C(N)=O` [GKPRPYSPRPTSHPRPIR], the values for the MIC (in the test with Escherichia coli BL21AI; in test [1]) were not below 61 µM and 3.81 µM (≈ 8 µg/mL), respectively.

`CC[C@H](C)[C@H](NC(=O)CN)C(=O)N[C@@H](Cc1ccccc1)C(=O)N[C@@H](CO)C(=O)N[C@@H](CCCCN)C(=O)N[C@@H](Cc1ccccc1)C(=O)NCC(=O)NCC(=O)N[C@@H](CCCCN)C(=O)N[C@@H](C)C(=O)N[C@H](C(=O)N[C@@H](CCCCN)C(=O)N[C@@H](CC(N)=O)C(=O)N[C@@H](CC(C)C)C(=O)N[C@@H](Cc1ccccc1)C(=O)N[C@H](C(=O)N[C@@H](CCCCN)C(=O)NCC(=O)N[C@@H](C)C(=O)N[C@@H](CCCCN)C(=O)N[C@@H](CC(N)=O)C(=O)N[C@H](C(=O)NCC(=O)N[C@@H](CCCCN)C(=O)N[C@@H](CCC(=O)O)C(=O)N[C@H](C(=O)NCC(=O)N[C@@H](CCSC)C(=O)N[C@@H](CC(=O)O)C(=O)N[C@H](C(=O)N[C@H](C(=O)N[C@@H](CCCN=C(N)N)C(=O)N[C@H](C(=O)NCC(=O)N[C@H](C(=O)N[C@@H](CC(=O)O)C(=O)N[C@H](C(=O)N[C@@H](C)C(=O)NCC(=O)N[C@H]1CSSC[C@@H](C(=O)O)NC(=O)[C@H](CCC(=O)O)NC(=O)CNC(=O)[C@H](CCCCN)NC(=O)[C@H]([C@@H](C)CC)NC(=O)[C@H](CCCCN)NC1=O)C(C)C)[C@@H](C)CC)[C@@H](C)O)[C@@H](C)CC)C(C)C)C(C)C)[C@@H](C)CC)[C@@H](C)CC)[C@@H](C)CC` [GIFSKFGGKAIKNLFIKGAKNIGKEVGMDVIRTGIDVAGCKIKGEC]: the MIC in test [2] and in test [3] was 13 µM (≈ 62.5 µg/mL) in each case.

On to `CC(C)C[C@H](NC(=O)[C@H](C)NC(=O)[C@H](Cc1c[nH]c2ccccc12)NC(=O)[C@H](CCCCN)NC(=O)[C@H](CC(C)C)NC(=O)[C@@H](N)Cc1ccccc1)C(=O)N[C@@H](CCCCN)C(=O)N[C@H](C(=O)N[C@@H](C)C(=O)N[C@@H](C)C(=O)N[C@@H](CCCCN)C(N)=O)C(C)C` [FLKWALKVAAK], for which the MIC in test [4], in test [5] and in test [6] was not below 512 µM each time.

For `CC(C)C[C@H](NC(=O)[C@H](CC(C)C)NC(=O)[C@H](CC(C)C)NC(=O)[C@H](CC(C)C)NC(=O)[C@H](CC(C)C)NC(=O)[C@H](CCCCN)NC(=O)[C@H](CCCCN)NC(=O)[C@@H](N)CCCCN)C(=O)N[C@@H](CCCCN)C(=O)N[C@@H](CCCCN)C(=O)N[C@@H](CCCCN)C(=O)O` [KKKLLLLLKKK], the figures for the MIC (in the test with Staphylococcus xylosus; in test [7]) were 8 µM (≈ 10.8 µg/mL) and 16 µM (≈ 21.6 µg/mL), respectively.

`CC(C)C[C@H](NC(=O)[C@H](C)NC(=O)CNC(=O)[C@H](CC(C)C)NC(=O)[C@@H](N)Cc1ccccc1)C(=O)N[C@@H](Cc1ccccc1)C(=O)N[C@@H](CCCCN)C(=O)N[C@@H](Cc1c[nH]c2ccccc12)C(=O)N[C@@H](C)C(=O)N[C@@H](CO)C(=O)N[C@@H](CCCCN)C(=O)O` [FLGALFKWASK]: the MIC was 158 µM (≈ 200 µg/mL) in the test with Pseudomonas aeruginosa; 9.86 µM (≈ 12.5 µg/mL) with Klebsiella pneumoniae; 19.7 µM (≈ 25 µg/mL) with Escherichia coli; 19.7 µM (≈ 25 µg/mL) in test [8]; 9.86 µM (≈ 12.5 µg/mL) against Staphylococcus aureus; not below 78.9 µM in the test on Salmonella typhimurium. Further, the MIC is not below 39.4 µM with Micrococcus luteus, 9.86 µM (≈ 12.5 µg/mL) in the test on Bacillus subtilis, not below 158 µM against Proteus mirabilis and 19.7 µM (≈ 25 µg/mL) with Shigella dysenteriae.

Consider `CC[C@H](C)[C@H](NC(=O)CN)C(=O)N[C@@H](CC(C)C)C(=O)N[C@@H](CC(=O)O)C(=O)N[C@H](C(=O)N[C@@H](CC(C)C)C(=O)N[C@@H](CCCCN)C(=O)N[C@@H](CCC(N)=O)C(=O)N[C@@H](Cc1ccccc1)C(=O)N[C@@H](C)C(=O)N[C@@H](CCCCN)C(=O)NCC(=O)N[C@H](C(=O)NCC(=O)N[C@@H](CCCCN)C(=O)N[C@@H](CC(=O)O)C(=O)N[C@@H](CC(C)C)C(=O)N[C@H](C(=O)N[C@@H](CCCCN)C(=O)NCC(=O)N[C@@H](C)C(=O)N[C@@H](C)C(=O)N[C@@H](CCC(N)=O)C(=O)NCC(=O)N[C@H](C(=O)N[C@@H](CC(C)C)C(=O)O)C(C)C)C(C)C)C(C)C)[C@@H](C)O` [GILDTLKQFAKGVGKDLVKGAAQGVL], for which the minimum inhibitory concentration (MIC) was more than 38.1 µM in the test on Candida albicans; 19 µM (≈ 50 µg/mL) with Pseudomonas aeruginosa; 9.52 µM (≈ 25 µg/mL) in the test with Escherichia coli; 28.5 µM (≈ 75 µg/mL) in test [8]; 9.52 µM (≈ 25 µg/mL) in the test with Saccharomyces cerevisiae; not below 38.1 µM in the test with Serratia marcescens. Further, the minimal inhibitory concentration (MIC) with Salmonella typhimurium worked out at 28.5 µM (≈ 75 µg/mL); in the test with Micrococcus luteus, 0.952 µM (≈ 2.5 µg/mL); in the test on Bacillus subtilis, 19 µM (≈ 50 µg/mL); against Proteus mirabilis, 19 µM (≈ 50 µg/mL); against Shigella dysenteriae it was 9.52 µM (≈ 25 µg/mL).

On to `CC(C)C[C@H](NC(=O)[C@H](CCCN=C(N)N)NC(=O)[C@H](CCCN=C(N)N)NC(=O)[C@H](Cc1ccccc1)NC(=O)[C@H](CCCN=C(N)N)NC(=O)CN)C(=O)NCC(=O)N[C@@H](CCCN=C(N)N)C(=O)N[C@@H](CCCCN)C(=O)N[C@@H](Cc1ccccc1)C(=O)N[C@@H](CCCCN)C(=O)N[C@@H](CCCCN)C(=O)N[C@@H](CC(C)C)C(=O)N[C@@H](Cc1ccccc1)C(=O)N[C@@H](CCCCN)C(=O)N[C@@H](CCCCN)C(=O)N[C@@H](Cc1ccc(O)cc1)C(=O)NCC(=O)N1CCC[C@H]1C(=O)O` [GRFRRLGRKFKKLFKKYGP], for which the MIC was determined as 4 µM (≈ 9.53 µg/mL) in the test with Escherichia coli ML-35, 8 µM (≈ 19.1 µg/mL) in test [9], 8 µM (≈ 19.1 µg/mL) in the test on Bacillus megaterium Bm11 and 8 µM (≈ 19.1 µg/mL) in test [2].

In the test with Bacillus subtilis 168, `CC[C@H](C)[C@H](NC(=O)[C@H](CCCCN)NC(=O)[C@H](CC(C)C)NC(=O)[C@H](Cc1ccccc1)NC(=O)[C@H](CCCCN)NC(=O)[C@H](CCCCN)NC(=O)[C@H](Cc1ccccc1)NC(=O)[C@H](C)NC(=O)[C@H](CCCCN)NC(=O)[C@H](CCCCN)NC(=O)[C@H](Cc1ccccc1)NC(=O)[C@H](CC(C)C)NC(=O)[C@H](CCCCN)NC(=O)[C@H](Cc1c[nH]c2ccccc12)NC(=O)[C@H](CCCCN)NC(=O)CN)C(=O)N[C@@H](CC(C)C)C(=O)N[C@@H](C)C(=O)N[C@@H](CS)C(=O)O` [GKWKLFKKAFKKFLKILAC] showed an MIC of 3.2 µM (≈ 7.35 µg/mL).

The molecule `CC[C@H](C)[C@H](NC(=O)[C@H](CS)NC(=O)[C@H](CCSC)NC(=O)[C@H](C)NC(=O)[C@H](CCCN=C(N)N)NC(=O)[C@@H](N)CC(C)C)C(=O)N[C@@H](CCCCN)C(=O)N[C@@H](Cc1c[nH]c2ccccc12)C(=O)N[C@@H](Cc1c[nH]c2ccccc12)C(=O)N[C@@H](CO)C(=O)NCC(=O)N[C@@H](CCCCN)C(=O)N[C@@H](Cc1cnc[nH]1)C(=O)N1CCC[C@H]1C(=O)N[C@@H](CCCCN)C(=O)O` [LRAMCIKWWSGKHPK] returned an MIC in the test on Bacillus subtilis 168 of 7 µM (≈ 12.9 µg/mL).

The record behind these values is DBAASP.
